Results published in PMC7562955 (Nature Communications, 2020).
Values joined by “and” are separate entries in the source; they are usually repeats but may differ in a detail not shown here. Equal values may be shown once. Read-outs that look alike come from different tables or passages of the source.

What was measured:
TLR7 = molecular target: T1, TLR7 (Homo sapiens, UniProt Q9NYK1); assay: Human TLR7 reporter gene inhibitory activity assay (NF-κB/SEAP HEK293); assay type: cell-based; set-up: host or cells: HEK293 (TLR7/NF-κB/SEAPorter); details: for IC50 / human TLR7 activity, reporter signal: R848 200 nM
T1 sequence (Q9NYK1 27-1049): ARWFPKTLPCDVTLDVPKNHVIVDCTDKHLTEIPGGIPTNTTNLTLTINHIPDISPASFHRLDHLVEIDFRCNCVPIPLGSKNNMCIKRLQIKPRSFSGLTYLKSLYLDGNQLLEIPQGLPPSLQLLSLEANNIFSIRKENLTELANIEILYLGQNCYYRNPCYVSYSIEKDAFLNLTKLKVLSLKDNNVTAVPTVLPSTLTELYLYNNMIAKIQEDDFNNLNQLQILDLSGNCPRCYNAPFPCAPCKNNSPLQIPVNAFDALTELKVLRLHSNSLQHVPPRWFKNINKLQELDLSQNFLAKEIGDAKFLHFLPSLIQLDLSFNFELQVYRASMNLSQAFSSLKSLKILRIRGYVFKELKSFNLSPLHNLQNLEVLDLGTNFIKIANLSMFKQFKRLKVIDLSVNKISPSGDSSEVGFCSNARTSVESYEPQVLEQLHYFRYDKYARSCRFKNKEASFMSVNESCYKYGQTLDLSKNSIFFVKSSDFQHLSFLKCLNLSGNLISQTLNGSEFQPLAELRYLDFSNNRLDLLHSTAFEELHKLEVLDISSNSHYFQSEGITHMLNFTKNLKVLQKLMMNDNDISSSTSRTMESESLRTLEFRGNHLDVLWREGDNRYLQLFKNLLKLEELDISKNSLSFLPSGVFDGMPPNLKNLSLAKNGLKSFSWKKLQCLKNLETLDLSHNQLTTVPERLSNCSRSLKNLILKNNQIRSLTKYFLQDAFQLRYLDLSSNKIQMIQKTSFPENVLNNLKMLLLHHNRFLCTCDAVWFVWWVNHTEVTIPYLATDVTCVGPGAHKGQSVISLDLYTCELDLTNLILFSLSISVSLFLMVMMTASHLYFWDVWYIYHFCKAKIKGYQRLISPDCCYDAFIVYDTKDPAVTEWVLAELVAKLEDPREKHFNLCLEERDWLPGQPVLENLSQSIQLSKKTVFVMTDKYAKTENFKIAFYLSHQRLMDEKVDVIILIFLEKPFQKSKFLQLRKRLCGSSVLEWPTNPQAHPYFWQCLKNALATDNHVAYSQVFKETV
Method: Compounds were dissolved in dimethyl sulfoxide. Before stimulation with compound, Human TLR7 reporter cell line (TLR7/NF-κB/SEAPorter^TM HEK293 cell, Novus Biological, USA), human TLR8 reporter cell line (TLR8/NF-κB/SEAPorter^TM HEK293 cell, Novus Biological), and human TLR9 reporter cell line (TLR9/NF-κB/SEAPorter^TM HEK293 cell, Novus Biological) were seeded in 96-well microtiter plate (AGC techno glass, Japan) at 5 × 10^4 cells/well in DMEM (GIBCO, United Kingdam) with 10 % fetal bovine serum (GIBCO), and 10 ug/ml Blastcidin S HCl (GIBCO) and incubated at 37 °C in 5% CO2. The plates were incubated over-night and then stimulated with various concentrations of compound. […] After 30 min, R848 (human TLR7/8 ligand, synthesized at Sumitomo Dainippon Pharma, Japan) or CpG2006 (human TLR9 ligand, Hokkaido System Science Co., Ltd., Japan) added to each well, wherein each final concentration were adjusted to 200 nM R848 (human TLR7), 30 μM R848 (human TLR8), or 500 nM CpG2006 (human TLR9). The plates were then incubated an additional 20 ± 1 h at 37 °C in 5% CO2 and then the secreted embryonic alkaline phosphatase (SEAP) activity was measured as activation of human TLR7, 8, and 9. The SEAP activity was evaluated as follows: pNPP (Invitrogen, USA) was added to the incubated sample (50 μl/well); after 15 min, 4 M sodium hydroxide solution (nacalai tesque, Japan) was added thereto (50 μl/well) to quench the reaction; and the absorbance of each sample was measured at 405 nm with microplate reader SpectraMax M4 (Molecular Devices, USA).

TLR1/2 = molecular target: T2, TLR1/2 (Homo sapiens, UniProt O60603+Q15399); assay: TNF-α production by human PBMC stimulated by TLR1/2 ligand Pam3CSK4 (ELISA); assay type: cell-based; details: for TLR2-dependent TNF-α production: 2.5 μM; for Mean TNF-α / TNF-α: activator PAM3CSK4, antagonist 2.5 μM; for Mean TNF-α: n = 3; for TNF-α: single replicate
T2 construct: Human Peripheral Blood Mononuclear cells (hPBMCs) were collected from healthy adult donors; endogenous in cells; host or cells: primary human PBMCs
T2 sequence (Q15399 25-786): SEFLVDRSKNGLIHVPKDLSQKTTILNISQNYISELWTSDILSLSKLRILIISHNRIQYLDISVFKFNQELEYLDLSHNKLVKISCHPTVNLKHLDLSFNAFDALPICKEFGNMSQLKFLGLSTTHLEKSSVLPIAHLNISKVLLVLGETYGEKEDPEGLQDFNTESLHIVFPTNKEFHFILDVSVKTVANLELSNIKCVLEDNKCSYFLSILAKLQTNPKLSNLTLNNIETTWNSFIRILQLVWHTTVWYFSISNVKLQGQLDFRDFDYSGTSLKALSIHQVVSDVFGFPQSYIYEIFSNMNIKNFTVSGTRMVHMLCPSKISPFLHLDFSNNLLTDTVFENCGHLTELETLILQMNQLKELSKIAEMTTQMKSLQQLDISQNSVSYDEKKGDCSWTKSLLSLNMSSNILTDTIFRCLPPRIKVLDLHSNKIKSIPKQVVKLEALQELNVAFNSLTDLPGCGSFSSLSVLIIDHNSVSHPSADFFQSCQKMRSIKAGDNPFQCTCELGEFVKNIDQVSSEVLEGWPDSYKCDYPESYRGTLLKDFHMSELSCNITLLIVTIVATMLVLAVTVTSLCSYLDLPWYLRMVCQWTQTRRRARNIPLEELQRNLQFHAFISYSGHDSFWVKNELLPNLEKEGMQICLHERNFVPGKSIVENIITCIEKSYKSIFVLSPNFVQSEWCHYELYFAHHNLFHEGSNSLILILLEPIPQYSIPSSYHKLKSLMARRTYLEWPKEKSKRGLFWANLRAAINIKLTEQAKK
T2 sequence (O60603 19-784 limits assumed): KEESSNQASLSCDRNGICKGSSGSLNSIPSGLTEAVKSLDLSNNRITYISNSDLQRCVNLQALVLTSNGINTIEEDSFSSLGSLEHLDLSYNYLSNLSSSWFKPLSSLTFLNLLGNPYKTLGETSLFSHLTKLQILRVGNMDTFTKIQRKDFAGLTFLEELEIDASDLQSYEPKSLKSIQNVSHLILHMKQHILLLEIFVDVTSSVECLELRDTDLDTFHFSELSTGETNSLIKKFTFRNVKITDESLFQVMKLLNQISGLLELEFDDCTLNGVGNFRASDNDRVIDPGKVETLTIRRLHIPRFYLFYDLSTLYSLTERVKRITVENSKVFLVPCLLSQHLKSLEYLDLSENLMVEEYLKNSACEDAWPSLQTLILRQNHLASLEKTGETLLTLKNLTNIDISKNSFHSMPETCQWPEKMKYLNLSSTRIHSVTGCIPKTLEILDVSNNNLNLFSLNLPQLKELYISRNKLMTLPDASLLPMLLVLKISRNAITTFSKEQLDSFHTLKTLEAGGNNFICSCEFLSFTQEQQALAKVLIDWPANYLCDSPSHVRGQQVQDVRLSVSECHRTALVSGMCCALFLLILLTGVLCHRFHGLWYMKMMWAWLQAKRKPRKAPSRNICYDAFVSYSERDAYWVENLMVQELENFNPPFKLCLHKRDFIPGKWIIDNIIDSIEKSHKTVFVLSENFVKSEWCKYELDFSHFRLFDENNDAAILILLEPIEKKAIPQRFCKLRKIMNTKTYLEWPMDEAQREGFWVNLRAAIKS
Method: Human Peripheral Blood Mononuclear cells (hPBMCs) were collected from healthy adult donors. hPBMCs were cultured in round-bottom 96-well plates (BD Falcon, Durham, NC, USA) with a density of 5 × 10^5 cells/well. Plated cells were pretreated with DMSO or 2.5 μM inhibitors for 3 h and then stimulated by indicated ligands, such as R848 or TLR1/2 specific ligand Pam3CSK4 (Invivogen, HongKong, China), for 20 h in […] of RPMI 1640 medium (Gibco, Paisley, UK) supplemented with 10% FBS, Penicillin-Streptomycin-Glutamine (Gibco, Paisley, UK), 50 μM 2-ME medium at 37 °C in the presence of 5% CO2. Supernatants were collected to measure secreted cytokines by ELISA. Concentration of human IFN-α and TNF-α in the supernatants was measured with Verikine Human IFN-α Multi-Subtype Serum ELISA Kit (PBL Assay Science, Piscataway, NJ, USA) and Human TNF-α Uncoated ELISA (ThermoFisher Scientific, Carlsbad, CA, USA), respectively. This study was approved by the Research Ethics Committee of IMSUT (accession number: 30-100-B20190419).

[1] = read-out: TLR7 inhibitory activity IC50

| IC50 (TLR7; read-out: TLR7 inhibitory potency IC50) [nM] | Structure (SMILES) | human TLR7 activity, reporter signal (TLR7; compound 0.0001 nM (as headed)) | human TLR7 activity, reporter signal (TLR7; compound 0.001 nM (as headed)) | human TLR7 activity, reporter signal (TLR7; compound 0.003 nM (as headed)) | human TLR7 activity, reporter signal (TLR7; compound 0.01 nM (as headed)) | human TLR7 activity, reporter signal (TLR7; compound 0.03 nM (as headed)) | human TLR7 activity, reporter signal (TLR7; compound 0.1 nM (as headed)) | human TLR7 activity, reporter signal (TLR7; compound 0.3 nM (as headed)) | human TLR7 activity, reporter signal (TLR7; compound 1 nM (as headed)) | human TLR7 activity, reporter signal (TLR7; compound 3 nM (as headed)) | human TLR7 activity, reporter signal (TLR7; compound 10 nM (as headed)) | human TLR7 activity, reporter signal (TLR7; compound 30 nM (as headed)) | human TLR7 activity, reporter signal (TLR7; compound 100 nM (as headed)) | TLR2-dependent TNF-α production (TLR1/2) | Mean TNF-α (TLR1/2) [pg/mL] | TNF-α (TLR1/2) | selectivity for TLR7 over TLR8 and TLR9 (TLR7) | IC50 (TLR7; [1]) [nM] |
| --- | --- | --- | --- | --- | --- | --- | --- | --- | --- | --- | --- | --- | --- | --- | --- | --- | --- | --- |
| 5000 | CCCCOc1nc(N)c2nc(-c3cccnc3)n(Cc3ccccc3)c2n1 [Cpd-5] | 2.067 | 1.898 | 1.879 | 1.8207 | 1.853 | 1.8291 | 1.986 | 1.7924 | 1.5762 | 1.162 | 0.6856 | 0.7605 | – | – | – | – | – |
| – | CCOc1nc(C)c2nc(-c3cncc(F)c3)n(Cc3ccc(CN4C[C@@H]5C[C@H]4CN5C)cc3)c2n1 [Cpd-7] | 1.983 | 1.718 | 1.528 | 1.179 | 0.5917 | 0.1271 | 0.01692 | -0.02107 | -0.03277 | -0.02908 | -0.03703 | -0.01692 | neither Cpd-6 nor Cpd-7 blocked | 2407.5 | 2596.39 pg/mL and 2051.11 pg/mL and 2574.99 pg/mL | high TLR7 selectivity | 15 |
| – | CCOc1nc(N)c2nc(-c3cncc(F)c3)n(Cc3ccc(CN4C[C@@H]5C[C@H]4CN5C)cc3)c2n1 [Cpd-6] | 1.983 | 1.907 | 1.643 | 1.354 | 0.8446 | 0.3393 | 0.1771 | 0.006275 | -0.01137 | -0.02343 | -0.03198 | -0.04843 | neither Cpd-6 nor Cpd-7 blocked | 2207.35 | 2553.64 pg/mL and 2237.72 pg/mL and 1830.68 pg/mL | high TLR7 selectivity | 25 |
| – | CCN(CCO)CCCC(C)Nc1ccnc2cc(Cl)ccc12 (stereo not drawn) [HCQ, hydroxychloroquine, reference compound] | 1.977 | – | – | 1.7427 | 1.684 | 1.7194 | 1.681 | 1.5856 | 1.338 | 1.109 | 0.2449 | 0.0133 | – | – | – | – | – |
